# “And” between values parts separate entries of the source, which are not always exact repeats. Equal entries are not always repeated. Structures can show the parent of a compound that is named as a salt. Where two headings read alike, the source gives them in different places.
# How the values were obtained:
# Staphyloccus aureus = experiment: bacteriostatic activity (MIC), Staphylococcus aureus; format: cell-based
# Description: (§1) The medium containing the solution to be tested is inoculated in the form of three single striae with a 10^-5 times dilution of a bacterial culture aged 16 to 18 hours grown in salted peptone broth at a temperature of 37° C.
# (§2) After inoculation, the media are stored at 37° C. for 48 hours, after which the bacterial growth is inspected. The MIC (minimum inhibiting concentrations) are expressed in micrograms of pure product per cubic centimeter of gelose medium required for inhibiting the culture (μg/cc). The control substance used is benzalconium chloride.
# (§3) Tests were also carried out to determine the bacteriostatic activity of other compounds according to the invention by the method described above and in comparison with known substances, in particular with benzalconium chloride (compound T in the Tables).
# Bacillus subtilis = experiment: bacteriostatic activity (MIC), Bacillus subtilis; format: cell-based
# Description: as §1, §2, §3
# Escherichia coli = experiment: bacteriostatic activity (MIC), Escherichia coli; format: cell-based
# Description: as §1, §2, §3
# Pseudomonas aeruginosa = experiment: bacteriostatic activity (MIC), Pseudomonas aeruginosa; format: cell-based
# Description: as §1, §2, §3
# Pneumobacille = experiment: bacteriostatic activity (MIC), Pneumobacille; format: cell-based; conditions: Table I, 37° C., 48 hours
# Description: as §2, with “The medium containing the solution to be tested is inoculated in the form of three single striae with a 10^-5 times dilution of a bacterial culture aged 16 to 18 hours grown in salted peptone broth at a temperature of 37° C. After” for “After”
# Serratia = experiment: bacteriostatic activity (MIC), Serratia; format: cell-based; conditions: Table I, 37° C., 48 hours
# Description: as §2, with “The medium containing the solution to be tested is inoculated in the form of three single striae with a 10^-5 times dilution of a bacterial culture aged 16 to 18 hours grown in salted peptone broth at a temperature of 37° C. After” for “After”
# Proteus vulgaris = experiment: bacteriostatic activity (MIC), Proteus vulgaris; format: cell-based; conditions: Table I, 37° C., 48 hours
# Description: as §2, with “The medium containing the solution to be tested is inoculated in the form of three single striae with a 10^-5 times dilution of a bacterial culture aged 16 to 18 hours grown in salted peptone broth at a temperature of 37° C. After” for “After”
# Enterbacter cloacae = experiment: bacteriostatic activity (MIC), Enterbacter cloacae; format: cell-based; conditions: Table I, 37° C., 48 hours
# Description: as §2, with “The medium containing the solution to be tested is inoculated in the form of three single striae with a 10^-5 times dilution of a bacterial culture aged 16 to 18 hours grown in salted peptone broth at a temperature of 37° C. After” for “After”
# Moraxella glucidolytica = experiment: bacteriostatic activity (MIC), Moraxella glucidolytica; format: cell-based; conditions: Table I, 37° C., 48 hours
# Description: as §2, with “The medium containing the solution to be tested is inoculated in the form of three single striae with a 10^-5 times dilution of a bacterial culture aged 16 to 18 hours grown in salted peptone broth at a temperature of 37° C. After” for “After”
# [1] = Staphylococcus aureus, 48 h, Table VI, bacteriostase containing 20% of serum, read-out: M.I.C.
# [2] = Staphylococcus aureus, 48 h, Table VI, bacteriostase without serum, read-out: M.I.C.
# [3] = Bacillus subtilis, 48 h, Table VI, bacteriostase containing 20% of serum, read-out: M.I.C.
# [4] = Bacillus subtilis, 48 h, Table VI, bacteriostase without serum, read-out: M.I.C.
# [5] = Escherichia coli, 48 h, Table VI, bacteriostase containing 20% of serum, read-out: M.I.C.
# [6] = Escherichia coli, 48 h, Table VI, bacteriostase without serum, read-out: M.I.C.
# [7] = Pseudomonas aeruginosa, 48 h, Table VI, bacteriostase containing 20% of serum, read-out: M.I.C.
# [8] = Pseudomonas aeruginosa, 48 h, Table VI, bacteriostase without serum, read-out: M.I.C.
# [9] = Table I, with 20% of serum, 37° C., 48 hours
# [10] = Table I, without serum, 37° C., 48 hours
# [11] = Table VI, bacteriostase containing 20% of serum
# [12] = Table VI, bacteriostase without serum
compound,measurement,setting,value
"CCCCCCCCCCCCOCC(O)CN.Cl (stereo not shown) [Compound 2, 3-dodecyloxy-2-hydroxy-1-aminopropane hydrochloride]",MIC,Staphyloccus aureus; [1],75 µg/mL
same,MIC,Staphyloccus aureus; [2],10 µg/mL
same,MIC,Bacillus subtilis; [3],30 µg/mL
same,MIC,Bacillus subtilis; [4],5 µg/mL
same,MIC,Escherichia coli; [5],100 µg/mL
same,MIC,Escherichia coli; [6],20 µg/mL
same,MIC,Pseudomonas aeruginosa; [7],1200 µg/mL
same,MIC,Pseudomonas aeruginosa; [8],800 µg/mL
"Br.CCCCCCCCCCOCC(O)CN (stereo not shown) [Compound 3, 3-decyloxy-2-hydroxy-1-aminopropane hydrobromide]",MIC,Staphyloccus aureus; [1],75 µg/mL
same,MIC,Staphyloccus aureus; [2],30 µg/mL
same,MIC,Bacillus subtilis; [3],50 µg/mL
same,MIC,Bacillus subtilis; [4],25 µg/mL
same,MIC,Escherichia coli; [5],60 µg/mL
same,MIC,Escherichia coli; [6],30 µg/mL
same,MIC,Pseudomonas aeruginosa; [7],250 µg/mL
same,MIC,Pseudomonas aeruginosa; [8],100 µg/mL
CCCCCCCCC(O)CN (stereo not shown) [Compound 4],MIC,Staphyloccus aureus; [1],150 µg/mL
same,MIC,Staphyloccus aureus; [2],70 µg/mL
same,MIC,Bacillus subtilis; [3],75 µg/mL
same,MIC,Bacillus subtilis; [4],20 µg/mL
same,MIC,Escherichia coli; [5],200 µg/mL
same,MIC,Escherichia coli; [6],125 µg/mL
same,MIC,Pseudomonas aeruginosa; [7],500 µg/mL
same,MIC,Pseudomonas aeruginosa; [8],400 µg/mL
"CCCCCCCCCCOCC(O)C[N+](C)(C)C (stereo not shown) [Compound 5, 3-decyloxy-2-hydroxy-N,N,N-trimethyl-1-ammonium chloride]",MIC,Staphyloccus aureus; [1],50 µg/mL
same,MIC,Staphyloccus aureus; [2],25 µg/mL
same,MIC,Bacillus subtilis; [3],40 µg/mL
same,MIC,Bacillus subtilis; [4],25 µg/mL
same,MIC,Escherichia coli; [5],200 µg/mL
same,MIC,Escherichia coli; [6],125 µg/mL
same,MIC,Pseudomonas aeruginosa; [7],750 µg/mL
same,MIC,Pseudomonas aeruginosa; [8],600 µg/mL
same,solubility in water,solubility,soluble in water
"CCCCCCCCOCC(O)CN.Cl (stereo not shown) [Compound 6, 3-octyloxy-2-hydroxy-1-aminopropane hydrochloride]",MIC,Staphyloccus aureus; [1],> 250 µg/mL
same,MIC,Staphyloccus aureus; [2],> 150 µg/mL
same,MIC,Bacillus subtilis; [3],200 µg/mL
same,MIC,Bacillus subtilis; [4],150 µg/mL
same,MIC,Escherichia coli; [5],300 µg/mL
same,MIC,Escherichia coli; [6],150 µg/mL
same,MIC,Pseudomonas aeruginosa; [7],500 µg/mL
same,MIC,Pseudomonas aeruginosa; [8],300 µg/mL
CCCCCCCCCC(O)CN (stereo not shown) [Compound 7],MIC,Staphyloccus aureus; [1],150 µg/mL
same,MIC,Staphyloccus aureus; [2],75 µg/mL
same,MIC,Bacillus subtilis; [3],50 µg/mL
same,MIC,Bacillus subtilis; [4],30 µg/mL
same,MIC,Escherichia coli; [5],150 µg/mL
same,MIC,Escherichia coli; [6],75 µg/mL
same,MIC,Pseudomonas aeruginosa; [7],500 µg/mL
same,MIC,Pseudomonas aeruginosa; [8],200 µg/mL
"CCCCCCCCCCCC(O)CN (stereo not shown) [Compound 8, 2-hydroxy-1-amino tridecane]",MIC,Staphyloccus aureus; [1],40 µg/mL
same,MIC,Staphyloccus aureus; [2],20 µg/mL
same,MIC,Bacillus subtilis; [3],30 µg/mL
same,MIC,Bacillus subtilis; [4],3 µg/mL
same,MIC,Escherichia coli; [5],75 µg/mL
same,MIC,Escherichia coli; [6],10 µg/mL
same,MIC,Pseudomonas aeruginosa; [7],> 1500 µg/mL
same,MIC,Pseudomonas aeruginosa; [8],> 1000 µg/mL
"CCCCCCCCCCCCCCOCC(O)CN (stereo not shown) [Compound 9, 3-tetradecyloxy-2-hydroxyamino-1-propane hydrochloride]",MIC,Staphyloccus aureus; [1],50 µg/mL
same,MIC,Staphyloccus aureus; [2],10 µg/mL
same,MIC,Bacillus subtilis; [3],30 µg/mL
same,MIC,Bacillus subtilis; [4],7 µg/mL
same,MIC,Escherichia coli; [5],> 1000 µg/mL
same,MIC,Escherichia coli; [6],> 500 µg/mL
same,MIC,Pseudomonas aeruginosa; [7],2500 µg/mL
same,MIC,Pseudomonas aeruginosa; [8],1250 µg/mL
same,solubility in water,solubility,soluble in water
"CCCCCCCCCCCCCCCCCCOCC(O)CN.Cl (stereo not shown) [Compound 10, 3-octadecyloxy-2-hydroxy-1-aminopropane hydrochloride]",MIC,Staphyloccus aureus; [1],> 500 µg/mL
same,MIC,Staphyloccus aureus; [2],> 300 µg/mL
same,MIC,Bacillus subtilis; [3],> 500 µg/mL
same,MIC,Bacillus subtilis; [4],> 300 µg/mL
same,MIC,Escherichia coli; [5],> 1000 µg/mL
same,MIC,Escherichia coli; [6],> 500 µg/mL
same,MIC,Pseudomonas aeruginosa; [7],> 2500 µg/mL
same,MIC,Pseudomonas aeruginosa; [8],1300 µg/mL
COCC(O)CN (stereo not shown) [Compound 11],MIC,Staphyloccus aureus; [1],> 500 µg/mL
same,MIC,Staphyloccus aureus; [2],> 300 µg/mL
same,MIC,Bacillus subtilis; [3],> 500 µg/mL
same,MIC,Bacillus subtilis; [4],> 300 µg/mL
same,MIC,Escherichia coli; [5],> 1000 µg/mL
same,MIC,Escherichia coli; [6],> 500 µg/mL
same,MIC,Pseudomonas aeruginosa; [7],> 2500 µg/mL
same,MIC,Pseudomonas aeruginosa; [8],> 1300 µg/mL
"CCOCC(O)CN.Cl (stereo not shown) [Compound 12, 3-ethoxy-2-hydroxy-1-aminopropane hydrochloride]",MIC,Staphyloccus aureus; [1],> 500 µg/mL
same,MIC,Staphyloccus aureus; [2],> 300 µg/mL
same,MIC,Bacillus subtilis; [3],> 500 µg/mL
same,MIC,Bacillus subtilis; [4],> 300 µg/mL
same,MIC,Escherichia coli; [5],> 1000 µg/mL
same,MIC,Escherichia coli; [6],> 500 µg/mL
same,MIC,Pseudomonas aeruginosa; [7],> 2500 µg/mL
same,MIC,Pseudomonas aeruginosa; [8],> 1300 µg/mL
"CCCCCCCCCCOCC(O)CN (stereo not shown) [Compound 13, 3-decyloxy-2-hydroxy-1-aminopropane]",MIC,Staphyloccus aureus; [1],80 µg/mL
same,MIC,Staphyloccus aureus; [2],40 µg/mL
same,MIC,Bacillus subtilis; [3],40 µg/mL
same,MIC,Bacillus subtilis; [4],20 µg/mL
same,MIC,Escherichia coli; [5],250 µg/mL
same,MIC,Escherichia coli; [6],50 µg/mL
same,MIC,Pseudomonas aeruginosa; [7],400 µg/mL
same,MIC,Pseudomonas aeruginosa; [8],150 µg/mL
"CCCCCCCCCCSCC(O)CN (stereo not shown) [Compound 14, 3-decanethio-2-hydroxy-1-aminopropane hydrochloride]",MIC,Staphyloccus aureus; [1],70 µg/mL
same,MIC,Staphyloccus aureus; [2],10 µg/mL
same,MIC,Bacillus subtilis; [3],30 µg/mL
same,MIC,Bacillus subtilis; [4],5 µg/mL
same,MIC,Escherichia coli; [5],250 µg/mL
same,MIC,Escherichia coli; [6],50 µg/mL
same,MIC,Pseudomonas aeruginosa; [7],600 µg/mL
same,MIC,Pseudomonas aeruginosa; [8],200 µg/mL
same,solubility in alcohol,solubility; alcohol,soluble in alcohol
"benzalconium chloride [T, reference compound]",MIC,Staphyloccus aureus; [9],12 μg/cc
same,MIC,Staphyloccus aureus; [10],1.5 μg/cc
same,M.I.C.,Staphyloccus aureus; [11],10 μg/cc and 5 μg/cc
same,M.I.C.,Staphyloccus aureus; [12],1.5 μg/cc and 1 μg/cc
same,MIC,Bacillus subtilis; [9],7.5 μg/cc
same,MIC,Bacillus subtilis; [10],2.5 μg/cc
same,M.I.C.,Bacillus subtilis; [11],2.5 μg/cc and 4 μg/cc
same,M.I.C.,Bacillus subtilis; [12],1 μg/cc and 2 μg/cc and 1.5 μg/cc
same,MIC,Escherichia coli; [9],300 μg/cc
same,MIC,Escherichia coli; [10],125 μg/cc
same,M.I.C.,Escherichia coli; [11],200 μg/cc and 250 μg/cc and 300 μg/cc
same,M.I.C.,Escherichia coli; [12],125 μg/cc and 150 μg/cc
same,MIC,Pseudomonas aeruginosa; [9],850 μg/cc
same,MIC,Pseudomonas aeruginosa; [10],600 μg/cc
same,M.I.C.,Pseudomonas aeruginosa; [11],750 μg/cc and 850 μg/cc and 1200 μg/cc and 1000 μg/cc
same,M.I.C.,Pseudomonas aeruginosa; [12],500 μg/cc and 600 μg/cc and 700 μg/cc
same,MIC,Pneumobacille; with 20% of serum,75 μg/cc
same,MIC,Pneumobacille; without serum,35 μg/cc
same,MIC,Serratia; with 20% of serum,30 μg/cc
same,MIC,Serratia; without serum,10 μg/cc
same,MIC,Proteus vulgaris; with 20% of serum,75 μg/cc
same,MIC,Proteus vulgaris; without serum,35 μg/cc
same,MIC,Enterbacter cloacae; with 20% of serum,75 μg/cc
same,MIC,Enterbacter cloacae; without serum,20 μg/cc
same,MIC,Moraxella glucidolytica; with 20% of serum,150 μg/cc
same,MIC,Moraxella glucidolytica; without serum,75 μg/cc

# From patent publication US4196217A, “Hydroxylated amines with bacteriostatic activity” (priority 1978, dated 1980)
